{"source": "patent US11691980B2", "about": "“Liphagal analog and multi-targeted kinase inhibitor containing liphagal or analog thereof” (TOHOKU UNIVERSITY, priority 2017, dated 2023)", "type_in_all_cases": "biochemical", "key": {"[1]": {"biological_target": "T1, HPK4 (Homo sapiens, UniProt Q8NE63)", "T1 construct": "purchased Carna Biosciences", "assay": "mobility shift assay"}, "[2]": {"biological_target": "T2, EPHB4 (Homo sapiens, UniProt P54760)", "T2 construct": "purchased Carna Biosciences", "assay": "mobility shift assay"}, "[3]": {"biological_target": "T3, JNK3 (Homo sapiens, UniProt P53779)", "T3 construct": "purchased Carna Biosciences", "assay": "mobility shift assay"}, "[4]": {"biological_target": "T4, CK1y1 (Homo sapiens, UniProt Q9HCP0)", "T4 construct": "purchased Carna Biosciences", "assay": "mobility shift assay"}, "[5]": {"biological_target": "T5, SYK (Homo sapiens, UniProt P43405)", "T5 construct": "purchased Carna Biosciences", "assay": "mobility shift assay"}, "[6]": {"biological_target": "T6, AurA (Homo sapiens, UniProt O14965)", "T6 construct": "purchased Carna Biosciences", "assay": "mobility shift assay"}, "[7]": {"biological_target": "T7, RET (Homo sapiens, UniProt P07949)", "T7 construct": "purchased Carna Biosciences", "assay": "mobility shift assay"}, "[8]": {"biological_target": "T8, p38B (Homo sapiens, UniProt Q15759)", "T8 construct": "purchased Carna Biosciences", "assay": "mobility shift assay"}, "[9]": {"biological_target": "T9, CaMK2γ (Homo sapiens, UniProt Q13555)", "T9 construct": "purchased Carna Biosciences", "assay": "mobility shift assay"}, "[10]": {"biological_target": "T10, SRPK2 (Homo sapiens, UniProt P78362)", "T10 construct": "purchased Carna Biosciences", "assay": "mobility shift assay"}, "[11]": {"biological_target": "T11, MET(D1228H) (Homo sapiens, UniProt P08581, D1228H)", "T11 construct": "purchased Carna Biosciences", "assay": "mobility shift assay"}, "[12]": {"biological_target": "T12, HGK (Homo sapiens, UniProt O95819)", "T12 construct": "purchased Carna Biosciences", "assay": "mobility shift assay"}, "[13]": {"biological_target": "T13, PHKG1 (Homo sapiens, UniProt Q16816)", "T13 construct": "purchased Carna Biosciences", "assay": "mobility shift assay"}, "[14]": {"biological_target": "T14, TRKA (Homo sapiens, UniProt P04629)", "T14 construct": "purchased Carna Biosciences", "T14 sequence (P04629 33-796)": "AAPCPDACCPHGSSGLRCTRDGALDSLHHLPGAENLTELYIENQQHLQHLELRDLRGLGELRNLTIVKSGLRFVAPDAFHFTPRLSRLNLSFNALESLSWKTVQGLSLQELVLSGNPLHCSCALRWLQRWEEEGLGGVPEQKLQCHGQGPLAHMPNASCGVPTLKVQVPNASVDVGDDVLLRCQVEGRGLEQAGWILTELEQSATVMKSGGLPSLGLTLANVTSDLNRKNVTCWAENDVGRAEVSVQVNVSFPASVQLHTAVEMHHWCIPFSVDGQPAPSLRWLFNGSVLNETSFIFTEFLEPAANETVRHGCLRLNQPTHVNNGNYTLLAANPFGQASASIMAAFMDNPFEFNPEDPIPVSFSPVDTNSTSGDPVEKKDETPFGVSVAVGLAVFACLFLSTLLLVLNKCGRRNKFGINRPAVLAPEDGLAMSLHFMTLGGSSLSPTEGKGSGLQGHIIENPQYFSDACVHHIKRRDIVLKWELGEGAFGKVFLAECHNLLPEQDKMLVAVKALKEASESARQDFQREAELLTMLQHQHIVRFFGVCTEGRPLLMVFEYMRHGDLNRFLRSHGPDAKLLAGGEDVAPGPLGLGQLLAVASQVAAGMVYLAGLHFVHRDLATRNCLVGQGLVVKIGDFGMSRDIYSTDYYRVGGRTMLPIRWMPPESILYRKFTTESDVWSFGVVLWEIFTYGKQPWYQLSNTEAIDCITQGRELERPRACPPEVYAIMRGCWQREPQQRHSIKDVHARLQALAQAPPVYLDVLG", "assay": "mobility shift assay"}, "[15]": {"biological_target": "T15, EPHB3 (Homo sapiens, UniProt P54753)", "T15 construct": "purchased Carna Biosciences", "assay": "mobility shift assay"}, "[16]": {"biological_target": "T16, NEK4 (Homo sapiens, UniProt P51957)", "T16 construct": "purchased Carna Biosciences", "assay": "mobility shift assay"}, "[17]": {"biological_target": "T17, PKN1 (Homo sapiens, UniProt Q16512)", "T17 construct": "purchased Carna Biosciences", "assay": "IMAP Assay"}, "[18]": {"biological_target": "T18, FLT4 (Homo sapiens, UniProt P35916)", "T18 construct": "purchased Carna Biosciences", "assay": "mobility shift assay"}, "[19]": {"biological_target": "T19, FRK (Homo sapiens, UniProt P42685)", "T19 construct": "purchased Carna Biosciences", "assay": "mobility shift assay"}, "[20]": {"biological_target": "CDK6 (Homo sapiens, UniProt Q00534)", "sequence (Q00534 whole entry)": "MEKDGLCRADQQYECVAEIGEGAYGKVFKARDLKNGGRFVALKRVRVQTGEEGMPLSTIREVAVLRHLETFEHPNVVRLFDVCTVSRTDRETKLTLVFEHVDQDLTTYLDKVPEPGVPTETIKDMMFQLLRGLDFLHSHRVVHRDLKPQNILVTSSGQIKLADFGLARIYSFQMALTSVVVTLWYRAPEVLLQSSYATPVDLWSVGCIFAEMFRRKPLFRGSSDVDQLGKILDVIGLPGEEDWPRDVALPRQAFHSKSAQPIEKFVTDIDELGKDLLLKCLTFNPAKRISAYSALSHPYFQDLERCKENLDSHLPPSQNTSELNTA", "assay": "IC50 by mobility shift assay", "conditions": "Table 4, inhibitory activity against CDK6, mobility shift assay; read-out: IC50 (μM), Kinase", "source_text": "Next, the compounds produced in Production Examples described above were each assessed for its inhibitory activity against CDK6 by mobility shift assay. In addition, a combination showing the highest inhibitory activity is indicated by italics."}, "[21]": {"biological_target": "T20, FGFR3(K650M) (Homo sapiens, UniProt P22607, K650M)", "T20 construct": "purchased Carna Biosciences", "T20 sequence (P22607 23-806 K650M)": "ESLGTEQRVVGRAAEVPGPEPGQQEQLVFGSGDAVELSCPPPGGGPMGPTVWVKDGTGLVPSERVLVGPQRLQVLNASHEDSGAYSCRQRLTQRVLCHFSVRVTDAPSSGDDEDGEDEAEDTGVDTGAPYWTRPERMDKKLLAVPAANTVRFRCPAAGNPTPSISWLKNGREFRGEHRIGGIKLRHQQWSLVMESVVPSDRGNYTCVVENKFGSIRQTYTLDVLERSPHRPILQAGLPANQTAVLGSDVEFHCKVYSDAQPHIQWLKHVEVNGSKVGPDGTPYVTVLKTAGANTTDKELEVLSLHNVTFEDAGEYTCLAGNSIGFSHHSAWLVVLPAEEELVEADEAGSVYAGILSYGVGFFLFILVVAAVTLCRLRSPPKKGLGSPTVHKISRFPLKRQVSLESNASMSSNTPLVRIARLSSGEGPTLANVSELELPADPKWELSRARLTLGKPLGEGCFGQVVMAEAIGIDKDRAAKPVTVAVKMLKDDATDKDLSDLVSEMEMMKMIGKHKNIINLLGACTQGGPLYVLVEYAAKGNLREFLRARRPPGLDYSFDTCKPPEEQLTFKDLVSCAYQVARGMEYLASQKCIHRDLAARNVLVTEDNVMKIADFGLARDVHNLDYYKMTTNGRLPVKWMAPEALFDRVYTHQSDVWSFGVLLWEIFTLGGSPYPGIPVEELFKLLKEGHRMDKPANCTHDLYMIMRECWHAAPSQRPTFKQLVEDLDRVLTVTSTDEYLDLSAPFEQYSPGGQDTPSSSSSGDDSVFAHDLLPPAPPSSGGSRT", "assay": "mobility shift assay"}, "[22]": {"biological_target": "T21, EPHA2 (Homo sapiens, UniProt P29317)", "T21 construct": "purchased Carna Biosciences", "assay": "mobility shift assay"}, "[23]": {"biological_target": "T22, TIE2 (Homo sapiens, UniProt Q02763)", "T22 construct": "purchased Carna Biosciences", "assay": "mobility shift assay"}, "[24]": {"biological_target": "T23, PKD1 (Homo sapiens, UniProt Q15139)", "T23 construct": "purchased Carna Biosciences", "assay": "mobility shift assay"}, "[25]": {"biological_target": "T24, FTI1 (Homo sapiens, UniProt P17948)", "T24 construct": "purchased Carna Biosciences", "T24 sequence (P17948 27-1338)": "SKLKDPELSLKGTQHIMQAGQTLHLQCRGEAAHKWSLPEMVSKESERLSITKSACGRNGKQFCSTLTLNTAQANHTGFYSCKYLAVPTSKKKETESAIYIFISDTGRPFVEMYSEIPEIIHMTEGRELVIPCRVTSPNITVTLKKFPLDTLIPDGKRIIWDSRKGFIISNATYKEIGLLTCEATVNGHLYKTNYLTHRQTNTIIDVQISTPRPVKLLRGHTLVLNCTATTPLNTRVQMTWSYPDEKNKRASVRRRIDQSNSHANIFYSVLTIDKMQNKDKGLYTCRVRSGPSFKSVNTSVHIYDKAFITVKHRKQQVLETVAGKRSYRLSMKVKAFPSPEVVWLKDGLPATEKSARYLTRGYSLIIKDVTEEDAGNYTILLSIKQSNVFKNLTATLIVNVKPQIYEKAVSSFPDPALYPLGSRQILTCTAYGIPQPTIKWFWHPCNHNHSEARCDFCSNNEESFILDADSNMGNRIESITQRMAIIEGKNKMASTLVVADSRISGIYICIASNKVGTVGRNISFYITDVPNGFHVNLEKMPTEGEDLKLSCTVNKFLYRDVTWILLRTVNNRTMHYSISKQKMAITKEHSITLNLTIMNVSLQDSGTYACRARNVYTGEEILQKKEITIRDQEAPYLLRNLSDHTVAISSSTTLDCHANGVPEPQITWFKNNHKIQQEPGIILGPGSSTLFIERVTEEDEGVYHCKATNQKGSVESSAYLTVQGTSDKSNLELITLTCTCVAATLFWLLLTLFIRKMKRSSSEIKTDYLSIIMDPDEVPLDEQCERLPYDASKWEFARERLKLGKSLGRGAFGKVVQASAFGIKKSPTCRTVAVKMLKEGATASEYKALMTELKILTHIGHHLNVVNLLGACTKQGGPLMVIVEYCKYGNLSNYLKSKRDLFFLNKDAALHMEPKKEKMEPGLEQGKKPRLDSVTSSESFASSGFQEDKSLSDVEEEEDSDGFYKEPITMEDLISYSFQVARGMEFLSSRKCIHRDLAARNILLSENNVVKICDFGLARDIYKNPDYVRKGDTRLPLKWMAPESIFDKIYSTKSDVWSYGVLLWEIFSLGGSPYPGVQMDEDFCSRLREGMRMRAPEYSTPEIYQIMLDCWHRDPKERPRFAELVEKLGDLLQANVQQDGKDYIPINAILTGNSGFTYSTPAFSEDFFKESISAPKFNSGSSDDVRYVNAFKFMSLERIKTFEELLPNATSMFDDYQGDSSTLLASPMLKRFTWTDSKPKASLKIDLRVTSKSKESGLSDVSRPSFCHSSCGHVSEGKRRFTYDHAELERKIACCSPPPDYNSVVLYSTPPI", "assay": "mobility shift assay"}, "[26]": {"biological_target": "T25, TRKB (Homo sapiens, UniProt Q16620)", "T25 construct": "purchased Carna Biosciences", "T25 sequence (Q16620 32-822)": "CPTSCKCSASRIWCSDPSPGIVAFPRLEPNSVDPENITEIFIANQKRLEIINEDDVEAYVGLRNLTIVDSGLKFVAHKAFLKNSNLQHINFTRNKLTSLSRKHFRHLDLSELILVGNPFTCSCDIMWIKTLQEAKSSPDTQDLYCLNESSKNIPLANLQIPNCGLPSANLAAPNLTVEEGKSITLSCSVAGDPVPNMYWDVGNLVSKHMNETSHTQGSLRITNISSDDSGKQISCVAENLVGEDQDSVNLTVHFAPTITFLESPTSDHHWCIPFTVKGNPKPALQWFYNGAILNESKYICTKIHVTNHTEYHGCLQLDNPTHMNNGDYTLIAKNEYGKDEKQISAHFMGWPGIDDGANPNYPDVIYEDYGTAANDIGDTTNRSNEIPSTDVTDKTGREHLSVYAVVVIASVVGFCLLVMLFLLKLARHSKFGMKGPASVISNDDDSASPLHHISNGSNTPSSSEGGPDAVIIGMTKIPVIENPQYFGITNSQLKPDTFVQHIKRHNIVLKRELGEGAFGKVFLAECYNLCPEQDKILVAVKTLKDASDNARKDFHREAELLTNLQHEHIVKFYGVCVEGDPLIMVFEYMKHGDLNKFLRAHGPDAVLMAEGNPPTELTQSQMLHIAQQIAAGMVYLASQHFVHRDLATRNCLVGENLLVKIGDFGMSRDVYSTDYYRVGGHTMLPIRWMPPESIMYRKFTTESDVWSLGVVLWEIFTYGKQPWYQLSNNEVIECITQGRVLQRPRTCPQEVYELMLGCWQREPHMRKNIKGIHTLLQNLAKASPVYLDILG", "assay": "mobility shift assay"}, "[27]": {"biological_target": "T26, CaMK1δ (Homo sapiens, UniProt Q8IU85)", "T26 construct": "purchased Carna Biosciences", "assay": "mobility shift assay"}, "[28]": {"biological_target": "T27, NDR2 (Homo sapiens, UniProt Q9Y2H1)", "T27 construct": "purchased Carna Biosciences", "assay": "mobility shift assay"}, "[29]": {"biological_target": "T28, KIT(D816Y) (Homo sapiens, UniProt P10721, D816Y)", "T28 construct": "purchased Carna Biosciences", "assay": "mobility shift assay"}, "[30]": {"biological_target": "T29, MST 1 (Homo sapiens, UniProt Q13043)", "T29 construct": "purchased Carna Biosciences", "assay": "mobility shift assay"}, "[31]": {"biological_target": "T30, CK1γ2 (Homo sapiens, UniProt P78368)", "T30 construct": "purchased Carna Biosciences", "assay": "mobility shift assay"}, "[32]": {"biological_target": "T31, AKT1 (Homo sapiens, UniProt P31749)", "T31 construct": "purchased Carna Biosciences", "assay": "mobility shift assay"}, "[33]": {"biological_target": "T32, BRK (Homo sapiens, UniProt Q13882)", "T32 construct": "purchased Carna Biosciences", "assay": "mobility shift assay"}, "[34]": {"biological_target": "T33, OK1δ (Homo sapiens, UniProt P48730)", "T33 construct": "purchased Carna Biosciences", "assay": "mobility shift assay"}, "[35]": {"biological_target": "T34, NEK7 (Homo sapiens, UniProt Q8TDX7)", "T34 construct": "purchased Carna Biosciences", "assay": "mobility shift assay"}, "[36]": {"biological_target": "T35, NEK9 (Homo sapiens, UniProt Q8TD19)", "T35 construct": "purchased Carna Biosciences", "assay": "mobility shift assay"}, "[37]": {"biological_target": "T36, TNK1 (Homo sapiens, UniProt Q13470)", "T36 construct": "purchased Carna Biosciences", "assay": "mobility shift assay"}, "[38]": {"biological_target": "T37, MUSK (Homo sapiens, UniProt O15146)", "T37 construct": "purchased Carna Biosciences", "T37 sequence (O15146 24-869)": "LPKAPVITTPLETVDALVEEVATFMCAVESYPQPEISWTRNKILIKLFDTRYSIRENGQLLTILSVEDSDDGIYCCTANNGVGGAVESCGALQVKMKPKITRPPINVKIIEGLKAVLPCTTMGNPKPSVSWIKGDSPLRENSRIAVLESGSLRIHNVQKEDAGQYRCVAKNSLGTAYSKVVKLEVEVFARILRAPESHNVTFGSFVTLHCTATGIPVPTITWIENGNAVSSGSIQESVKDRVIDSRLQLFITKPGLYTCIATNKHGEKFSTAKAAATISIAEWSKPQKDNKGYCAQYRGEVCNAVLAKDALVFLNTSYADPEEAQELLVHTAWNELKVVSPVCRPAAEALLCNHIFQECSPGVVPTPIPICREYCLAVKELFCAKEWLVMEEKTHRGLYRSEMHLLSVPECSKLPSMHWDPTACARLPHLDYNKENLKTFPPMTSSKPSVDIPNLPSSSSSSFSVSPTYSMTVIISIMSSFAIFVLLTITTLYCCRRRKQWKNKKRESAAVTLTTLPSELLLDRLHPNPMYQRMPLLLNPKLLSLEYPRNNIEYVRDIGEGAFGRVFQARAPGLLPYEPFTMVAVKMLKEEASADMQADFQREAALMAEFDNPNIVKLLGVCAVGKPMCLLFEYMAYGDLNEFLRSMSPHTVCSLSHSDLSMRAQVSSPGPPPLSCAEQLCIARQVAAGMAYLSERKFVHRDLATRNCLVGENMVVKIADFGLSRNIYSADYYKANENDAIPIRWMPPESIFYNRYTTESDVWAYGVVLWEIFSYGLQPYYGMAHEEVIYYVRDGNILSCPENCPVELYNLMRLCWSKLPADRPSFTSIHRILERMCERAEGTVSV", "assay": "mobility shift assay"}, "[39]": {"biological_target": "T38, MNK1 (Homo sapiens, UniProt Q9BUB5)", "T38 construct": "purchased Carna Biosciences", "assay": "mobility shift assay"}, "[40]": {"biological_target": "T39, EPHB1 (Homo sapiens, UniProt P54762)", "T39 construct": "purchased Carna Biosciences", "assay": "mobility shift assay"}, "[41]": {"biological_target": "T40, ALK(R1275Q) (Homo sapiens, UniProt Q9UM73, R1275Q)", "T40 construct": "purchased Carna Biosciences", "assay": "mobility shift assay"}}, "data": [{"smiles": "C[C@@H]1CC[C@H]2C(C)(C)CCC[C@]2(C)c2c1oc1c(C=O)c(O)c(O)cc21", "note": "[LG-1, liphagal]", "values": [{"measurement": "inhibition at 10 µM", "setting": "[1]", "result": 18.2, "unit": "%"}, {"measurement": "inhibition at 10 µM", "setting": "[2]", "result": -1.2, "unit": "%"}, {"measurement": "inhibition at 10 µM", "setting": "[3]", "result": -5.8, "unit": "%"}, {"measurement": "inhibition at 10 µM", "setting": "[4]", "result": 2.8, "unit": "%"}, {"measurement": "inhibition at 10 µM", "setting": "[5]", "result": 17, "unit": "%"}, {"measurement": "inhibition at 10 µM", "setting": "[6]", "result": 53.9, "unit": "%"}, {"measurement": "inhibition at 10 µM", "setting": "[7]", "result": 10.6, "unit": "%"}, {"measurement": "inhibition at 10 µM", "setting": "[8]", "result": 9.1, "unit": "%"}, {"measurement": "inhibition at 10 µM", "setting": "[9]", "result": 3.8, "unit": "%"}, {"measurement": "inhibition at 10 µM", "setting": "[10]", "result": 9.7, "unit": "%"}, {"measurement": "inhibition at 10 µM", "setting": "[11]", "result": 2.9, "unit": "%"}, {"measurement": "inhibition at 10 µM", "setting": "[12]", "result": 1.2, "unit": "%"}, {"measurement": "inhibition at 10 µM", "setting": "[13]", "result": 21.7, "unit": "%"}, {"measurement": "inhibition at 10 µM", "setting": "[14]", "result": 36.4, "unit": "%"}, {"measurement": "inhibition at 10 µM", "setting": "[15]", "result": 1.7, "unit": "%"}, {"measurement": "inhibition at 10 µM", "setting": "[16]", "result": 8.7, "unit": "%"}, {"measurement": "inhibition at 10 µM", "setting": "[17]", "result": 5.3, "unit": "%"}, {"measurement": "inhibition at 10 µM", "setting": "[18]", "result": 2.1, "unit": "%"}, {"measurement": "inhibition at 10 µM", "setting": "[19]", "result": 1.4, "unit": "%"}, {"measurement": "IC50", "setting": "[20]", "result": 6.78, "unit": "µM"}, {"measurement": "inhibition at 10 µM", "setting": "[21]", "result": -3.6, "unit": "%"}, {"measurement": "inhibition at 10 µM", "setting": "[22]", "result": 2.6, "unit": "%"}, {"measurement": "inhibition at 10 µM", "setting": "[23]", "result": 11.7, "unit": "%"}, {"measurement": "inhibition at 10 µM", "setting": "[24]", "result": 4.2, "unit": "%"}, {"measurement": "inhibition at 10 µM", "setting": "[25]", "result": 10.4, "unit": "%"}, {"measurement": "inhibition at 10 µM", "setting": "[26]", "result": 15.8, "unit": "%"}, {"measurement": "inhibition at 10 µM", "setting": "[27]", "result": 57.7, "unit": "%"}, {"measurement": "inhibition at 10 µM", "setting": "[28]", "result": -4.9, "unit": "%"}, {"measurement": "inhibition at 10 µM", "setting": "[29]", "result": 6.2, "unit": "%"}, {"measurement": "inhibition at 10 µM", "setting": "[30]", "result": 24.3, "unit": "%"}, {"measurement": "inhibition at 10 µM", "setting": "[31]", "result": -2.8, "unit": "%"}, {"measurement": "inhibition at 10 µM", "setting": "[32]", "result": 3.1, "unit": "%"}, {"measurement": "inhibition at 10 µM", "setting": "[33]", "result": 52.5, "unit": "%"}, {"measurement": "inhibition at 10 µM", "setting": "[34]", "result": 4.1, "unit": "%"}, {"measurement": "inhibition at 10 µM", "setting": "[35]", "result": 24.4, "unit": "%"}, {"measurement": "inhibition at 10 µM", "setting": "[36]", "result": 27.3, "unit": "%"}, {"measurement": "inhibition at 10 µM", "setting": "[37]", "result": 5.1, "unit": "%"}, {"measurement": "inhibition at 10 µM", "setting": "[38]", "result": -8.4, "unit": "%"}, {"measurement": "inhibition at 10 µM", "setting": "[39]", "result": 5.3, "unit": "%"}, {"measurement": "inhibition at 10 µM", "setting": "[40]", "result": 1.7, "unit": "%"}, {"measurement": "inhibition at 10 µM", "setting": "[41]", "result": -0.5, "unit": "%"}]}]}
